Assay results as given in patent US9493446B2, “Orexin receptor antagonists which are [ortho bi-(hetero-)aryl]-[2-(meta bi-(hetero-)aryl)-pyrrolidin-1-yl]-methanone derivatives” (Actelion Pharmaceuticals Ltd, priority 2012, dated 2016).
Read-outs that look alike come from different tables or passages of the source.

Key:
orexin-1 = orexin-1 (Homo sapiens (Human), UniProt O43613); assay: Intracellular calcium measurement (FLIPR), CHO cells expressing human orexin-1 receptor, 3 nM orexin-A; format: cell-based; conditions: read-out: IC50 OX1
Procedure, shortened: (§1)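 CHO transfectants were dye-loaded (fluo-4 AM, probenecid) and exposed to antagonist for 120 min ahead of agonist.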

human orexin-2 receptor = human orexin-2 receptor (Homo sapiens (Human), UniProt O43614); assay: Intracellular calcium measurement (FLIPR), CHO cells expressing human orexin-2 receptor, 3 nM orexin-A; format: cell-based; conditions: read-out: IC50 OX2
Procedure, shortened: as §1

[1] = CHO cells expressing human orexin-1 receptor, FLIPR, 3 nM orexin-A, geometric mean if determined several times
[2] = CHO cells expressing human orexin-2 receptor, FLIPR, 3 nM orexin-A, geometric mean if determined several times

Chain of human orexin-2 receptor (O43614 whole entry): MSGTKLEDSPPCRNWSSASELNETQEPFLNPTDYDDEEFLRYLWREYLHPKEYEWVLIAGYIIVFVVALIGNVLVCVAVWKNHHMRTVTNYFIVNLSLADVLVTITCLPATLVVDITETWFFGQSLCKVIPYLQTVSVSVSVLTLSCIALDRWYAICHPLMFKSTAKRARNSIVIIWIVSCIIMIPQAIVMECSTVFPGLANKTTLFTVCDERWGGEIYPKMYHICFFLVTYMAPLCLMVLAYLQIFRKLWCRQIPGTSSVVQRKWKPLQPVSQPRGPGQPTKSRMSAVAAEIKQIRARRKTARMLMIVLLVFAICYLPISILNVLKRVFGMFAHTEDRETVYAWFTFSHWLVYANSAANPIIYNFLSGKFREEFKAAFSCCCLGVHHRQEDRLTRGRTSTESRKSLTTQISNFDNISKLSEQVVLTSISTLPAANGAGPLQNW
Chain of orexin-1 (O43613 whole entry): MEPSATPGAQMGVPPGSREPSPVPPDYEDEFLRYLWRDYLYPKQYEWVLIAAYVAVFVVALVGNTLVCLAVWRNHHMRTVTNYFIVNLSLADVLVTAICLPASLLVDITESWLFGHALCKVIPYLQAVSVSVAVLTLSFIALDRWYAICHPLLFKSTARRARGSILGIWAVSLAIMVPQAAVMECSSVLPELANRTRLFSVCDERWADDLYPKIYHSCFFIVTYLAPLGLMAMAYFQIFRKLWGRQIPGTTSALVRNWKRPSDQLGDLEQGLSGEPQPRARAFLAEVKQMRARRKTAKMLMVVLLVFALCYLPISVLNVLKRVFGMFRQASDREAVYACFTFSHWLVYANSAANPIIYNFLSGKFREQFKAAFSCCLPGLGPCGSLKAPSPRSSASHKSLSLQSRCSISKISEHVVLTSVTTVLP

Compound	IC50 (orexin-1; [1]) [µM]	IC50 (human orexin-2 receptor; [2]) [µM]	IC50 (orexin-1) [µM]	IC50 (human orexin-2 receptor) [µM]
COc1ccc(F)c(-c2noc([C@@H]3CCCN3C(=O)c3cc(C)ccc3-n3nccn3)n2)c1F [compound 69, {(S)-2-[3-(2,6-Difluoro-3-methoxy-phenyl)-[1,2,4]oxadiazol-5-yl]-pyrrolidin-1-yl}-(5-methyl-2-[1,2,3]triazol-2-yl-phenyl)-methanone]	1.84	0.163		
Cc1cccc(-c2sc(C)nc2C(=O)N2CCC[C@H]2c2nc(-c3cccc(Cl)c3C)no2)c1 [compound 126]	0.221	0.118		
COc1c(F)cccc1-c1nnc([C@@H]2CCCN2C(=O)c2cc(C)ccc2-n2nccn2)[nH]1 [compound 497, {(S)-2-[5-(3-Fluoro-2-methoxy-phenyl)-4H-[1,2,4]triazol-3-yl]-pyrrolidin-1-yl}-(5-methyl-2-[1,2,3]triazol-2-yl-phenyl)-methanone]	0.049	0.046		
Cc1ccc(-n2nccn2)c(C(=O)N2CCC[C@H]2c2nc(-c3c[nH]c4ncccc34)no2)c1 [compound 50, (5-Methyl-2-[1,2,3]triazol-2-yl-phenyl)-{(S)-2-[3-(1H-pyrrolo[2,3-b]pyridin-3-yl)-[1,2,4]oxadiazol-5-yl]-pyrrolidin-1-yl}-methanone]	0.131	0.075		
Cc1ccc(-n2nccn2)c(C(=O)N2CCC[C@H]2c2cc(-c3cccc(Cl)c3C)on2)c1 [compound 431]	0.019	0.002		
Cc1ccc(C)c(-c2nc([C@@H]3CCCN3C(=O)c3cc(C)c(C)cc3-n3nccn3)no2)c1 [compound 402, {(S)-2-[5-(2,5-Dimethyl-phenyl)-[1,2,4]oxadiazol-3-yl]-pyrrolidin-1-yl}-(4,5-dimethyl-2-[1,2,3]triazol-2-yl-phenyl)-methanone]	0.164	0.002		
CCc1ccccc1-c1nc([C@@H]2CCCN2C(=O)c2ccc(Cl)cc2-n2nccn2)no1 [compound 398]		0.018	0.033	
Cc1cc(-n2nccn2)c(C(=O)N2CCC[C@H]2c2nc(-c3cccc(Cl)c3C)no2)cc1Cl [compound 293]	0.032	0.01		
COc1cccc(-c2noc([C@@H]3CCCN3C(=O)c3cc(C)ccc3-n3nccn3)n2)c1Cl [compound 70]	0.623			0.053

Second part, led by results:

IC50 (orexin-1; [1]) [µM]	IC50 (human orexin-2 receptor; [2]) [µM]	Compound	IC50 (orexin-1) [µM]	IC50 (human orexin-2 receptor) [µM]
0.021	0.008	Cc1ccc(-n2nccn2)c(C(=O)N2CCC[C@H]2c2nc(-c3c[nH]c4ccccc34)no2)c1 [compound 15, {(S)-2-[3-(1H-Indol-3-yl)-[1,2,4]oxadiazol-5-yl]-pyrrolidin-1-yl}-(5-methyl-2-[1,2,3]triazol-2-yl-phenyl)-methanone]		
0.282	0.032	Cc1ccc(-n2nccn2)c(C(=O)N2CCC[C@H]2c2nc(-c3cccc(OC(F)(F)F)c3)no2)c1 [compound 270, (5-Methyl-2-[1,2,3]triazol-2-yl-phenyl)-{(S)-2-[3-(3-trifluoromethoxy-phenyl)-[1,2,4]oxadiazol-5-yl]-pyrrolidin-1-yl}-methanone]		
0.007	0.004	Cc1ccc(-n2nccn2)c(C(=O)N2CCC[C@H]2c2nc(-c3cn(C)c4ccccc34)no2)c1 [compound 57, {(S)-2-[3-(1-Methyl-1H-indol-3-yl)-[1,2,4]oxadiazol-5-yl]-pyrrolidin-1-yl}-(5-methyl-2-[1,2,3]triazol-2-yl-phenyl)-methanone]		
0.252	0.016	Cc1ccc(-n2nccn2)c(C(=O)N2CCC[C@H]2c2nc(-c3ccc(C)c(C)c3)no2)c1 [compound 80, {(S)-2-[3-(3,4-Dimethyl-phenyl)-[1,2,4]oxadiazol-5-yl]-pyrrolidin-1-yl}-(5-methyl-2-[1,2,3]triazol-2-yl-phenyl)-methanone]		
0.083	0.06	Cc1nc(C(=O)N2CCC[C@H]2c2nnc(-c3ccccc3OC(F)(F)F)o2)c(-c2ccccc2F)s1 [compound 444, [5-(2-Fluoro-phenyl)-2-methyl-thiazol-4-yl]-{(S)-2-[5-(2-trifluoromethoxy-phenyl)-[1,3,4]oxadiazol-2-yl]-pyrrolidin-1-yl}-methanone]		
